Patent US9586959B2, “Substituted tricyclic heterocycles as histamine 4 receptor inhibitors” (C&C RESEARCH LABORATORIES, priority 2011, dated 2017)
Converted amounts (≈) assume the structure as drawn.

Tests used:
[1] = target: human histamine 4 receptor (hH4R) (Homo sapiens (Human), UniProt Q9H3N8); test: Binding affinity of human histamine 4 receptor (hH4R), [3H] labeled histamine displacement; settings: hH4R-overexpressed cell membrane, [3H] histamine
Protocol: 20 μL of the prepared compound solution was transferred to each well of a 96-well plate, and then 20 μL of 100 μM histamine diluted with analysis buffer solution and 1% DMSO were transferred to each well to calculate non-specific binding and total binding degree. 25 μg of human histamine 4 receptor-overexpressed cell membrane (PerkinElmer) was diluted into 160 μL of analysis buffer solution and that was transferred to each well. [^3H] labeled histamine (PerkinElmer) was diluted into 1 μM concentration, 20 μL was allocated in each well, and then it was kept in a 27° C. incubator for 30 minutes. After the reaction, 200 μL of the mixture was transferred to a glass fiber plate in which 0.5% polyethylene amine was presoaked, and then non-binding [^3H] labeled histamine was removed in vacuum. After 4 times washing with 200 μL of washing buffer solution (50 mM tris-HCl, pH 7.4), the plate was dried in a 37° C. oven for 18 hours. 100 μL of betascint cocktail solution was added to each well, and after 1 hour CPM (count per minute) value of [^3H] labeled histamine was measured by using Wallac beta-counter TriLux.

[2] = target: human histamine 3 receptor (hH3R) (Homo sapiens (Human), UniProt Q9Y5N1); test: Binding affinity of human histamine 3 receptor (hH3R), [3H] labeled N-α-methylhistamine displacement; settings: hH3R-overexpressed cell membrane, [3H] N-α-methylhistamine
Protocol: 10 μL of the prepared compound solution was allocated in each well of a 96-well plate, and then 10 μL of 200 μM (R)(−)-α-methylhistamine (RaMH) diluted with analysis buffer and 1% of DMSO were transferred to each well to calculate non-specific binding and total binding degree. 15 μg of human histamine 3 receptor-overexpressed cell membrane (PerkinElmer) was diluted with 180 μL of analysis buffer solution (50 mM tris-HCl pH 7.4, 5 mM MgCl2), and that was transferred to each well. [^3H] labeled Na-methylhistamine (PerkinElmer) was diluted into […], 10 μL of that was added to each well, and then it was kept in a 27° C. incubator for 30 minutes. After the reaction, 200 μL of the mixture was transferred to a glass fiber plate in which 0.5% polyethylene amine was presoaked, and then non-binding [^3H] labeled Na-methylhistamine was removed in vacuum. After 5 times washing with 200 μL of washing buffer solution (50 mM tris-HCl, pH 7.4), the plate was dried in a 37° C. oven for 18 hours. 100 μL of betascint cocktail solution was added to each well, and after 1 hour CPM of [^3H] labeled N-α-methylhistamine was measured by using Wallac beta-counter TriLux. The binding affinity (IC50) of the human histamine 3 receptor for the present invention was analyzed by an Excel program, and the results of analysis are shown in Table 2.

[3] = Solubility in artificial gastrointestinal tract solution; type: physicochemical; settings: artificial gastrointestinal tract solution, thermodynamic from solid; for solubility at 1 h: fassgf or other biorelevant, first solution pH 1.2, 2 mg/mL sample, 37° C. 1 hour; for solubility at 2 h: fassif, second solution pH 6.5, 2 mg/mL sample, 37° C. 2 hours
Protocol: 2.0 g of sodium chloride was added in 7.0 mL of 37% of hydrochloric acid and water to make the total volume of 1 L. The pH was adjusted to exactly 1.2 with 1N sodium hydroxide or 1N hydrochloric acid. A small amount (20 mL) of this solution was taken and added in 25 μL of triton X-100 to make the total volume of 25 mL.
0.348 g sodium hydroxide, 3.438 g NaH2PO4, 6.186 g sodium chloride and water were added to make the total volume of 1 L. The pH was adjusted to exactly 6.5 with 1N sodium hydroxide or 1N hydrochloric acid. A small amount (20 mL) of this solution was taken and 41.25 mg of sodium taurocholate hydrate and 25 μL of 750 mM lecithin dissolved in ethanol was added to make the total volume of 25 mL.
The heated test sample solutions were filtered to remove undissolved compounds therein. Finally, 100 μL of the completely compound-dissolved solution was sampled and 100 μL of CH3CN was added thereto to make the test sample solution. For each analysis of the test sample solution, the solubility was measured by using liquid chromatography.

Sequence of human histamine 3 receptor (hH3R) (Q9Y5N1 whole entry): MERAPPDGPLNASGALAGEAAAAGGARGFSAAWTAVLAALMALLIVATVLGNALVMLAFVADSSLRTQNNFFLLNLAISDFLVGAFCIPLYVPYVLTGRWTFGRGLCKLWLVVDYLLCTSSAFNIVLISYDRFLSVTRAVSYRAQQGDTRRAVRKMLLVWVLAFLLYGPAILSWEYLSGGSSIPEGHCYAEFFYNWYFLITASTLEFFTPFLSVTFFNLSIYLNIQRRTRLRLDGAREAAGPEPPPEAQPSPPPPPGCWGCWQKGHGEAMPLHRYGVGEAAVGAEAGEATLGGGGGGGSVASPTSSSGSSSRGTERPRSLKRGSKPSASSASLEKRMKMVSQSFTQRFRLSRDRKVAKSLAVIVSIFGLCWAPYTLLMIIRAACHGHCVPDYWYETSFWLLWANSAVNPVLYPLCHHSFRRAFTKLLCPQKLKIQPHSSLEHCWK

SMILES	IC50 [1]	IC50 [2]	solubility at 1 h [3]	solubility at 2 h [3]
Cc1cnc2nc(N3CCN(C)CC3)c3nncn3c2c1 [Compound 2, 8-Methyl-4-(4-methylpiperazin-1-yl)pyrido[2,3-e][1,2,4]triazolo[4,3-a]pyrazine]	506 nM	> 100000 nM		
CCOc1nc2nc(N3CCN(C)CC3)c3nncn3c2cc1Cl [Compound 23, 8-Chloro-7-ethoxy-4-(4-methylpiperazin-1-yl)pyrido[2,3-e][1,2,4]triazolo[4,3-a]pyrazine]	140 nM	> 100000 nM		
CNC1CN(c2nc3nc(C#N)c(Cl)cc3n3cnnc23)C1 [Compound 28, 8-Chloro-4-(3-(methylamino)azetidin-1-yl)pyrido[2,3-e][1,2,4]triazolo[4,3-a]pyrazin-7-carbonitrile]	490 nM	> 100000 nM		
CN1CCN(c2nc3ncc(Cl)cc3c3ncnn23)CC1 [Compound 35, 9-Chloro-5-(4-methylpiperazin-1-yl)pyrido[3,2-e][1,2,4]triazolo[1,5-c]pyrimidine]	170 nM			
CN1CCN(c2nc3ncc(Cl)cc3c3cn(C)nc23)CC1 [Compound 43, 8-Chloro-2-methyl-4-(4-methylpiperazin-1-yl)-2H-pyrazolo[3,4-c][1,8]naphthylidine]	70 nM	97000 nM		
CN1CCN(c2nc3ncc(Cl)cc3n3ccnc23)CC1 [Compound 46, 8-Chloro-4-(4-methylpiperazin-1-yl)imidazo[1,2-a]pyrido[2,3-e]pyrazine]	154 nM		1910 µg/mL (≈ 6.32 mM)	1100 µg/mL (≈ 3.64 mM)
Clc1cnc2nc(N3CCNCC3)c3nccn3c2c1 [Compound 47, 8-Chloro-4-(piperazin-1-yl)imidazo[1,2-a]pyrido[2,3-e]pyrazine]	618 nM			
CN1CCN(c2nc3ncc(I)cc3n3cnnc23)CC1 [Compound 49, 8-Iodo-4-(4-methylpiperazin-1-yl)pyrido[2,3-e][1,2,4]triazolo[4,3-a]pyrazine]	34 nM	> 100000 nM		
CNC1CN(c2nc3ncc(C(F)F)cc3n3cnnc23)C1 [Compound 51, 1-(8-(Difluoromethyl)pyrido[2,3-e][1,2,4]triazolo[4,3-a]pyrazin-4-yl)-N-methylazetidin-3-amine]	710 nM	> 100000 nM		
C=Cc1cnc2nc(N3CC(NC)C3)c3nncn3c2c1 [Compound 55, N-Methyl-1-(8-vinylpyrido[2,3-e][1,2,4]triazolo[4,3-a]pyrazin-4-yl)azetidin-3-amine]	260 nM	> 100000 nM		
COc1nc2nc(N3CCN(C)CC3)c3nncn3c2cc1Cl [Compound 60, 8-Chloro-7-methoxy-4-(4-methylpiperazin-1-yl)pyrido[2,3-e][1,2,4]triazolo[4,3-a]pyrazine]	610 nM	> 100000 nM		
CCOc1nc2nc(N3CCNCC3)c3nncn3c2cc1Cl [Compound 63, 8-Chloro-7-ethoxy-4-(piperazin-1-yl)pyrido[2,3-e][1,2,4]triazolo[4,3-a]pyrazine]	580 nM	> 100000 nM		
CN1CCN(c2nc3nc(OCC(F)(F)F)c(Cl)cc3n3cnnc23)CC1 [Compound 64, 8-Chloro-4-(4-methylpiperazin-1-yl)-7-(2,2,2-trifluoroethoxy)pyrido[2,3-e][1,2,4]triazolo[4,3-a]pyrazine]	240 nM	> 100000 nM		
Cc1c(Br)cnc2nc(N3CCN(C)CC3)c3nncn3c12 [Compound 66, 8-Bromo-9-methyl-4-(4-methylpiperazin-1-yl)pyrido[2,3-e][1,2,4]triazolo[4,3-a]pyrazine]	300 nM			
CNC1CN(c2nc3ncc(Cl)c(Cl)c3n3cnnc23)C1 [Compound 67, 1-(8,9-Dichloropyrido[2,3-e][1,2,4]triazolo[4,3-a]pyrazin-4-yl)-N-methylazetidin-3-amine]	314 nM	> 100000 nM		
Brc1cnc2nc(N3CCN4CCCC4C3)c3nncn3c2c1 (stereo not shown) [Compound 74, 8-Bromo-4-(hexahydropyrrolo[1,2-a]pyrazin-2(1H)-yl)pyrido[2,3-e][1,2,4]triazolo[4,3-a]pyrazine]	60 nM		1530 µg/mL (≈ 4.08 mM)	646 µg/mL (≈ 1.73 mM)
Ic1cnc2nc(N3CCN4CCCC4C3)c3nncn3c2c1 (stereo not shown) [Compound 75, 4-(Hexahydropyrrolo[1,2-a]pyrazin-2(1H)-yl)-8-iodopyrido[2,3-e][1,2,4]triazolo[4,3-a]pyrazine]	64 nM		2000 µg/mL (≈ 4.76 mM)	723 µg/mL (≈ 1.72 mM)

Now from value to molecule:

IC50 [1]	IC50 [2]	solubility at 1 h [3]	solubility at 2 h [3]	SMILES
	> 100000 nM	1840 µg/mL (≈ 6.04 mM)	1940 µg/mL (≈ 6.4 mM)	CNC1CN(c2nc3ncc(Cl)cc3c3oc(C)nc23)C1 [Compound 91, 1-(8-Chloro-2-methyloxazolo[4,5-c][1,8]naphthylidine-4-yl)-N-methylazetidin-3-amine]
62 nM				CN1CCN(c2nc3ncc(Cl)cc3n3nnnc23)CC1 [Compound 94, 8-Chloro-4-(4-methylpiperazin-1-yl)pyrido[2,3-e]tetrazolo[1,5-a]pyrazine]
28 nM				CN1CCN(c2nc3ncc(Br)cc3n3nnnc23)CC1 [Compound 96, 8-Bromo-4-(4-methylpiperazin-1-yl)pyrido[2,3-e]tetrazolo[1,5-a]pyrazine]
11 nM		1700 µg/mL (≈ 5.36 mM)	1090 µg/mL (≈ 3.44 mM)	Cc1nc2c(N3CCN(C)CC3)nc3ncc(Cl)cc3n2n1 [Compound 98, 8-Chloro-2-methyl-4-(4-methylpiperazin-1-yl)pyrido[2,3-e][1,2,4]triazolo[1,5-a]pyrazine]
231 nM	> 100000 nM			Cc1nc2nc(N3CCN(C)CC3)c3nncn3c2cc1Br [Compound 100, 8-bromo-7-methyl-4-(4-methylpiperazin-1-yl)pyrido[2,3-e][1,2,4]triazolo[4,3-a]pyrazine]
	> 100000 nM			CNC1CN(c2nc3ncc(Br)cc3n3cc(C)nc23)C1 [Compound 108, 1-(8-bromo-2-methylimidazo[1,2-a]pyrido[2,3-e]pyrazin-4-yl)-N-methylazetidin-3-amine]
	> 100000 nM			CNC1CN(c2nc3ncc(Br)cc3c3cc(C)nn23)C1 [Compound 109, 1-(9-bromo-2-methylpyrazolo[1,5-c]pyrido[3,2-e]pyrimidin-5-yl)-N-methylazetidin-3-amine]
	> 100000 nM			CNC1CN(c2nc3ncc(N)cc3n3cnnc23)C1 [Compound 112, 4-(3-(methylamino)azetidin-1-yl)pyrido[2,3-e][1,2,4]triazolo[4,3-a]pyrazin-8-amine]
	> 100000 nM			CNC1CN(c2nc3ncc(-c4ccccc4)cc3n3cnnc23)C1 [Compound 113, N-methyl-1-(8-phenylpyrido[2,3-e][1,2,4]triazolo[4,3-a]pyrazin-4-yl)azetidin-3-amine]
	> 100000 nM			CNC1CN(c2nc3ncc(-c4ccco4)cc3n3cnnc23)C1 [Compound 114, 1-(8-(furan-2-yl)pyrido[2,3-e][1,2,4]triazolo[4,3-a]pyrazin-4-yl)-N-methylazetidin-3-amine]
	> 100000 nM			CNC1CN(c2nc3ncc(Br)cc3n3cccc23)C1 [Compound 115, 1-(2-bromopyrido[2,3-e]pyrrolo[1,2-a]pyrazin-6-yl)-N-methylazetidin-3-amine]
210 nM	> 100000 nM			CNC1CN(c2nc3cnc(Cl)cc3n3cnnc23)C1 [Compound 117, 1-(8-chloropyrido[3,4-e][1,2,4]triazolo[4,3-a]pyrazin-4-yl)-N-methylazetidin-3-amine]
